# Patent US7927785B2, “Methods for in vitro expansion of hematopoietic stem cells” (The Board of Trustees of the University of Illinois, priority 2002, dated 2011)
# What was measured:
# Type in all cases: cell-based
# [1] = system: adult human bone marrow CD34+ cells; test: Cobblestone area-forming cell (CAFC) assay in limiting dilution; settings: for CAFC/10,000 Cells: after 9 days of culture, unfractionated, cobblestone areas counted after 5 weeks
# Procedure: The ability of primitive HSC to form cobblestone areas (CA) in long term marrow cultures has been used as an in vitro surrogate progenitor HSC assay (Breems et al., Leukemia, 8:1095-1104, 1994, Lefkovits et al., Immunol. Today, 5:265-268, 1984; Cross et al., Curr. Opin. Genet. Dev., 5:609-613, 1997). CD34^+ cells after 9 days of culture from each condition were plated in limiting dilution in flat-bottomed 96-well plates (Costar) onto confluent, irradiated (7000cGy) monolayers of the murine stromal fibroblast line M2-10B4 (a gift from Dr. C. Eaves, Vancouver, BC, Canada). Each well contained 200 μL of a 50:50 mixture of IMDM and RPMI with 10% FBS. A cocktail of growth factors, including 100 ng/mL SCF, 100 ng/mL leukemia inhibitory factor (LIF), 50 ng/mL IL-3, 50 ng/mL IL-6 and 50 ng/mL granulocyte-monocyte colony stimulating factor (GM-CSF) (Amgen, Thousand Oaks, Calif.).
# The cultures were fed weekly by replacement of one half of the culture volume with fresh medium containing the above cytokines at 2 times the previously defined concentration. After 5 weeks of culture in a humidified incubator at 37° C. containing 5% CO2, the number of CA were ennumerated. The CAFC frequency was computed by means of minimization of chi regression to the cell number at which 37% of wells were negative for CA formation, with 95% statistical precision using L-Calc (Limiting dilution calculation) software (Stem Cell Inc., Vancouver, Canada; Lefkovits et al., Curr. Opin. Genet. Dev. 5:609-613, 1997).
# [2] = system: adult human bone marrow CD34+ cells; test: Ex vivo expansion culture: cell counts and CD34+CD90+ cell numbers; settings: for Fold changes from the original cells: CD34+CD90+ cells; for Total counts ×10^5: start 1×10^5 CD34+ cells/well; for expansion of CD34+CD90+ cells / Absolute CD34+ Number (×10^4) / Absolute CD34+CD90+ Numbers (×10^4) / Total Mononuclear Cell Number (×10^4): 9 days with cytokines; for Absolute CD34+ Number (×10^4) / Absolute CD34+CD90+ Numbers (×10^4) / Total Mononuclear Cell Number (×10^4) / Fold Expansion of CD34+CD90+: mean of 3 ± SEM; for Fold Expansion of CD34+CD90+: compared to the primary cell numbers
# Procedure: To promote cell division of isolated CD34^+ cells, a stroma-free suspension culture was established as previously described (Bazil et al., 1995). Tissue culture dishes (35 mm; Costar, Corning, N.Y.) were seeded with 1×10^5 CD34^+cells/well in 2.5 mL Iscove modified Dulbecco medium (IMDM) (Biowhittaker, Walkersville, Md.) containing 30% FBS and a cocktail of cytokines specifically thought to promote exit from G0/G1 in primitive HSC populations which consisted of 100 ng/mL recombinant stem cell factor (SCF), 100 ng/mL FLT-3 ligand, 100 ng/mL thrombopoetin (TPO) and 50 ng/mL of interleukin (IL)-3, (all from Amgen Inc., Thousand Oaks, Calif.).
# Cells were maintained in the media and incubated at 37° C. in a 100%-humidified atmosphere containing 5% CO2 for 48 hours. After intial 16 hours of incubation cells were exposed to the demethylating agent, 5-aza2′deoxycitidine (5azaD) (Sigma Chemicals, St. Louis, Mo.) at a concentration of 10^−6M. After 48 hours, cells were washed by centrifugation and then equally distributed to new tissue culture dishes in 2.5 mL IMDM supplemented with 30% FBS containing cytokines known to promote terminal differentiation of HSC into multiple hematopoietic lineages. The cocktail of cytokines contained 100 ng/mL of SCF, 50 ng/ml of granulocyte colony-stimulating factor (G-CSF), 50 ng/mL of IL-3, 50 ng/ml of IL-6 and 5 units (U)/mL of recombinant erythropoietin (EPO) (Amgen Inc., Thousand Oaks, Calif.). Cells at this time point were exposed to Trichostatin (TSA) (Sigma Chemical., St. Louis, Mo.) at 5 ng/mL and the culture was continued for an additional 7 days. At the end of the culture period cells were counted for viability by the trypan blue exclusion method using an inverted microscope. 5-fluorouracil (5-FU) (Sigma Chemical., St. Louis, Mo.) was used at a concentration of 200 μg/ml and added at the 16 hour time point instead of 5azaD and the cultures carried on as described above with no addition of TSA.
# The phenotypic characteristics of the CD34^+ cells were analyzed using FACS. After 9 days of culture, expanded marrow CD34^+ cells were analyzed for primitive HSC phenotype, previously defined, by using flow activated-cell sorter (FACS) (Becton Dickinson (BD) FACS Calibur, San Jose, Calif.). Cells were stained with anti-human CD34^+ moAb conjugated either to fluorescein isothiocyanate (FITC) or phycoerythrin (PE) and another moAb including anti-CD38, anti-CD117, anti-CD90. To determine the lineage positive cells a panel of moab all conjugated to FITC (anti-CD2, anti-CD14, anti-CD15, anti-CD19 and anti-GlyA) (all antibodies were purchased from BD) were utilized. All anaylsis were paired with the corresponding matched isotype control of the specific moAb utilized. All staining and washes were performed in DPBS (Biowhittaker, Walkersville Md.) and 0.5% BSA (Sigma, Chemicals Co., St. Louis, Mo.). Immediately prior to FACS anaylsis, […] propidium iodide (PI) (Sigma, Chemicals Co., St. Louis, Mo.) was added for the exclusion of nonviable cells for phenotypic analysis. Using Cell-Quest software (BD), at least 10,000 live cells were acquired for each analysis.
# [3] = system: adult human bone marrow CD34+ cells; test: Colony-forming cell (CFC) assay in methylcellulose; settings: for Total Number Colonies/plate / BFU-E / CFU-GM / CFU-Mix: cells after 9 days with cytokines, mean of 2 ± SEM; for BFU-E / CFU-GM / CFU-Mix: colonies/plate; for BFU (BFU-E colonies) / GM (CFU-GM colonies) / Mix (CFU-Mix colonies) / Total (colonies): mean of 3 experiments, 1000 unfractionated cells/plate after 9 days of culture, day 14; for Clonogenic potential: total colonies/number of cells plated×100; for Plating Efficiencies: total number of hematopoietic colonies/total cells plated × 100
# Procedure: Colony-forming cells (CFC) were assayed under standard conditions in semisolid media as previously described (Brandt et al., Blood 94:106-113, 1999). Briefly 1×10^3 primary CD34^+ cells or unfractionated cultured cells exposed to different conditions used following 9 days of culture were plated in duplicate cultures containing 1 ml IMDM with 1.1% methylcellulose, 30% FBS, 5×10^−5 M 2-mercaptoethanol (Methocult, Stem Cell Technologies, Vancouver, BC, Canada), and a cocktail of growth factors including 100 ng/ml of SCF, 5 U/mL of EPO, 50 ng/mL of IL-3, 50 ng/mL of IL-6 and 50 ng/mL of G-CSF (Amgen Inc., Thousand Oaks, Calif.). The cells were plated into 35 mm tissue-culture dishes (Costar), and after 14 days of incubation at 37° C. in a 100%-humidified atmosphere containing 5% CO2, the colonies were scored with an inverted microscope following standard criteria (Breems et al., Leukemia, 8:1095-1104, 1994).
# [4] = 9 days of culture, single agent
structure (smiles),measurement,setting,value
"Nc1ncn([C@H]2C[C@H](O)[C@@H](CO)O2)c(=O)n1 [5azaD, 5-aza2′deoxycitidine]",fold increase in the number of CAFC over the primary cells,[1]; 9 days with cytokines,1.9 fold
same,"CAFC/10,000 Cells",[1],"96 CAFC/10,000 cells"
same,% CD34+ of all cells,[2]; [4],26%
same,% CD34+ thy-1+ cells,[2]; [4],6%
same,Absolute CD34+ thy-1+ cells ×10^5,[2]; [4],0.15 ×10^5
same,Absolute CD34 counts ×10^5,[2]; [4],0.65 ×10^5
same,Fold changes from the original cells,[2]; [4],0.7 fold
same,Total counts ×10^5,[2]; [4],2.5 ×10^5
same,expansion of CD34+CD90+ cells,[2],more limited expansion
same,Absolute CD34+ Number (×10^4),[2],10.0 ± 4.0 ×10^4
same,Absolute CD34+CD90+ Numbers (×10^4),[2],4.0 ± 1.7 ×10^4
same,Total Mononuclear Cell Number (×10^4),[2],32.0 ± 5.0 ×10^4
same,Fold Expansion of CD34+CD90+,[2],1.7 ± 0.8 fold
same,Total Number Colonies/plate,[3],97.8 ± 11.1
same,BFU-E,[3],4 ± 1.5
same,CFU-GM,[3],73.0 ± 0.25
same,CFU-Mix,[3],20.8 ± 9.3
same,BFU (BFU-E colonies),[3],5
same,GM (CFU-GM colonies),[3],52
same,Mix (CFU-Mix colonies),[3],27
same,Total (colonies),[3],84
same,Clonogenic potential,[3],8.4%
same,Plating Efficiencies,[3],9.8 ± 1.1
"CC(/C=C/C(=O)NO)=C\[C@@H](C)C(=O)c1ccc(N(C)C)cc1 [TSA, Trichostatin A]",numbers of CAFC relative to cytokines alone,[1]; 9 days with cytokines,comparable numbers of CAFC as cultures receiving cytokines alone
same,"CAFC/10,000 Cells",[1],"16 CAFC/10,000 cells"
same,% CD34+ of all cells,[2]; [4],3.9%
same,Absolute CD34+ thy-1+ cells ×10^5,[2]; [4],0.31 ×10^5
same,Absolute CD34 counts ×10^5,[2]; [4],1.7 ×10^5
same,Fold changes from the original cells,[2]; [4],1.4 fold
same,Total counts ×10^5,[2]; [4],46 ×10^5
same,expansion of CD34+CD90+ cells,[2],more limited expansion
same,Absolute CD34+ Number (×10^4),[2],19.0 ± 1.0 ×10^4
same,Absolute CD34+CD90+ Numbers (×10^4),[2],4.0 ± 1.0 ×10^4
same,Total Mononuclear Cell Number (×10^4),[2],470.0 ± 87.0 ×10^4
same,Fold Expansion of CD34+CD90+,[2],1.8 ± 0.4 fold
same,Total Number Colonies/plate,[3],14.3 ± 8.1
same,BFU-E,[3],0.0
same,CFU-GM,[3],13 ± 6.6
same,CFU-Mix,[3],1.3 ± 0.8
same,BFU (BFU-E colonies),[3],0
same,GM (CFU-GM colonies),[3],3
same,Mix (CFU-Mix colonies),[3],0
same,Total (colonies),[3],3
same,Clonogenic potential,[3],0.3%
same,Plating Efficiencies,[3],1.4 ± 0.8
